How the values were obtained:
[1] = target: Calcium/calmodulin-dependent protein kinase type IV (Homo sapiens) (UniProt Q16566)
[2] = target: 5'-AMP-activated protein kinase catalytic subunit alpha-1 (Homo sapiens) (UniProt Q13131)
[3] = target: Dual specificity mitogen-activated protein kinase kinase 1 (Homo sapiens) (UniProt Q02750)
[4] = target: Calcium/calmodulin-dependent protein kinase type II subunit gamma (Homo sapiens) (UniProt Q13555)
[5] = target: Inhibitor of nuclear factor kappa-B kinase subunit epsilon (Homo sapiens) (UniProt Q14164)
[6] = target: Cyclin-dependent kinase 14 (Homo sapiens) (UniProt O94921)
Chain of Cyclin-dependent kinase 14 (Homo sapiens) (O94921 whole entry): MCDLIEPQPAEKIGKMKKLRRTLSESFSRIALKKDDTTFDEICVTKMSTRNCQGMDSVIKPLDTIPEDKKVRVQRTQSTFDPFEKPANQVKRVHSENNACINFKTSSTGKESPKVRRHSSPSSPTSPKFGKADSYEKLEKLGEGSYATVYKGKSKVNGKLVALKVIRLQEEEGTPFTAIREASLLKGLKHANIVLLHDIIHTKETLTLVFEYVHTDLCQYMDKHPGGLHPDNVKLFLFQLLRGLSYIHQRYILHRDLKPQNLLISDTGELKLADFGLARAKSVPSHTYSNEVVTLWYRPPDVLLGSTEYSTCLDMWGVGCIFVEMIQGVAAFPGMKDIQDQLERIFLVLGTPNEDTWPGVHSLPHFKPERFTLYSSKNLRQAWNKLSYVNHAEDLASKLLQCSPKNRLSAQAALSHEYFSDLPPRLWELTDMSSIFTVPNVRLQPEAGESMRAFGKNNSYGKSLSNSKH

[7] = target: Cyclin-dependent kinase 18 (Homo sapiens) (UniProt Q07002)
[8] = target: Receptor tyrosine-protein kinase erbB-3 (Homo sapiens) (UniProt P21860)
[9] = target: 5'-AMP-activated protein kinase catalytic subunit alpha-2 (Homo sapiens) (UniProt P54646)
[10] = target: Dual specificity mitogen-activated protein kinase kinase 5 (Homo sapiens) (UniProt Q13163)
Chain of Dual specificity mitogen-activated protein kinase kinase 5 (Homo sapiens) (Q13163 whole entry): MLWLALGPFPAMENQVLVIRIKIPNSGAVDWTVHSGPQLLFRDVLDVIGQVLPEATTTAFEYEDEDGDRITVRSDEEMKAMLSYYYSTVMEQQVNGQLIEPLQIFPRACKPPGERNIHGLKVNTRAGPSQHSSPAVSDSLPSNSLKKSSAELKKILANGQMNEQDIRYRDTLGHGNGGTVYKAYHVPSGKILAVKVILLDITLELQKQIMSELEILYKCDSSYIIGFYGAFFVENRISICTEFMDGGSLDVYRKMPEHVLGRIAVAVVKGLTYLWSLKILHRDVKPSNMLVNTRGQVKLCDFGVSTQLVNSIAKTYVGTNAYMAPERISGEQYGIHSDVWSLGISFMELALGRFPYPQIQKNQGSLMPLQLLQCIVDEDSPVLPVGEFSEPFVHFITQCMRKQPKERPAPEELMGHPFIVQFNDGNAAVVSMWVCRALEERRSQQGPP

[11] = target: Protein kinase C delta type (Homo sapiens) (UniProt Q05655)
[12] = target: Insulin-like growth factor 1 receptor (Homo sapiens) (UniProt P08069)
Chain of Insulin-like growth factor 1 receptor (Homo sapiens) (P08069 31-736 limits assumed): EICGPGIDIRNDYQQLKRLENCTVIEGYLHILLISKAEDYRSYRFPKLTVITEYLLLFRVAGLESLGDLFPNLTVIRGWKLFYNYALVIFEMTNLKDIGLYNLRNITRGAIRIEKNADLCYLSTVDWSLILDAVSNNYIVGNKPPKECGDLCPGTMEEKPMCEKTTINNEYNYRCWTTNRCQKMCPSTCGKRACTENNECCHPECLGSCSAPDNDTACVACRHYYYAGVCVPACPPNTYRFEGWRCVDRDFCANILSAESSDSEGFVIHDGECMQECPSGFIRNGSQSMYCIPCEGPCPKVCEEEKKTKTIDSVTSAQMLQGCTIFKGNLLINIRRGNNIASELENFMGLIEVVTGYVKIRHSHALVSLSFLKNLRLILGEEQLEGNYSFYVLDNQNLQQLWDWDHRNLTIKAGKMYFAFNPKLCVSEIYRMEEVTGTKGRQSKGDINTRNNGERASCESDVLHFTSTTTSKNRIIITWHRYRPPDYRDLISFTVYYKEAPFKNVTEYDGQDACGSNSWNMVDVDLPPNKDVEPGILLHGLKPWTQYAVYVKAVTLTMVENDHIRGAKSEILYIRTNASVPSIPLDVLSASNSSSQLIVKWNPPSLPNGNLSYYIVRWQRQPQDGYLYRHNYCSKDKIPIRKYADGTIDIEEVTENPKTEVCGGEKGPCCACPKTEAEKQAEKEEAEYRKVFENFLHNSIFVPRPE
Chain of Insulin-like growth factor 1 receptor (Homo sapiens) (P08069 741-1367 limits assumed): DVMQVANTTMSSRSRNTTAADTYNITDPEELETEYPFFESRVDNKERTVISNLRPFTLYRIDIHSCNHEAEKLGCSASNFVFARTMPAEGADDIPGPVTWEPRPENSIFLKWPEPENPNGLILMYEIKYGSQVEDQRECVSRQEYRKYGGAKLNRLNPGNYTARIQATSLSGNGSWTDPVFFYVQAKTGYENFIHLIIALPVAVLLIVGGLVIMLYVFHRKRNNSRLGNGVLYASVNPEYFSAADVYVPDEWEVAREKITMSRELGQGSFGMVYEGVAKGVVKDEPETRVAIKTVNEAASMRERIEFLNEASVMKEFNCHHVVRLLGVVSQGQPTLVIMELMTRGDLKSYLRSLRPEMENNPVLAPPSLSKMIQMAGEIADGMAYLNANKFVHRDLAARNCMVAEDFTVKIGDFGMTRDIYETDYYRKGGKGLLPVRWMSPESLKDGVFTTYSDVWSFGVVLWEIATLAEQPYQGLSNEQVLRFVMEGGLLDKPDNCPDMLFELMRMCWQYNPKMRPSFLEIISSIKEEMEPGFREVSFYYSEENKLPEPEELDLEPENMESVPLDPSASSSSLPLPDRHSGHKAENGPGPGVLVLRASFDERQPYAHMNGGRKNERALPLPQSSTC

[13] = target: Protein kinase C theta type (Homo sapiens) (UniProt Q04759)
[14] = target: Serine/threonine-protein kinase TAO2 (Homo sapiens) (UniProt Q9UL54)
[15] = target: SRSF protein kinase 3 (Homo sapiens) (UniProt Q9UPE1)
[16] = target: Serine/threonine-protein kinase Chk2 (Homo sapiens) (UniProt O96017)
[17] = target: Ephrin type-B receptor 2 (Homo sapiens) (UniProt P29323)
[18] = target: Transient receptor potential cation channel subfamily M member 6 (Homo sapiens) (UniProt Q9BX84)
[19] = target: MAP kinase-activated protein kinase 5 (Homo sapiens) (UniProt Q8IW41)
[20] = target: Receptor-type tyrosine-protein kinase FLT3 (Homo sapiens) (UniProt P36888)
[21] = target: MAP kinase-interacting serine/threonine-protein kinase 2 (Homo sapiens) (UniProt Q9HBH9)
[22] = target: Myosin light chain kinase family member 4 (Homo sapiens) (UniProt Q86YV6)
[23] = target: Glycogen synthase kinase-3 beta (Homo sapiens, UniProt P49841)
[24] = target: Atypical kinase COQ8B, mitochondrial (Homo sapiens) (UniProt Q96D53)
[25] = target: Serine/threonine-protein kinase BRSK2 (Homo sapiens) (UniProt Q8IWQ3)
[26] = target: Vascular endothelial growth factor receptor 1 (Homo sapiens) (UniProt P17948)
[27] = target: Serine/threonine-protein kinase ULK3 (Homo sapiens) (UniProt Q6PHR2)
[28] = tested on: Epidermal growth factor receptor (Homo sapiens), P00533 [L858R]
[29] = target: cAMP-dependent protein kinase catalytic subunit beta (Homo sapiens) (UniProt P22694)
[30] = target: Tyrosine-protein kinase ABL1 (Homo sapiens) (UniProt P00519)
[31] = target: Insulin receptor-related protein (Homo sapiens) (UniProt P14616)
[32] = target: Serine/threonine-protein kinase PAK 2 (Homo sapiens) (UniProt Q13177)
[33] = target: Serine/threonine-protein kinase VRK2 (Homo sapiens) (UniProt Q86Y07)
[34] = target: Ribosomal protein S6 kinase alpha-1 (Homo sapiens) (UniProt Q15418)
[35] = tested on: Tyrosine-protein kinase ABL1 (Homo sapiens), P00519 [T315I]
[36] = target: Cyclin-dependent kinase 15 (Homo sapiens) (UniProt Q96Q40)
[37] = tested on: Receptor-type tyrosine-protein kinase FLT3 (Homo sapiens), P36888 [UNDEFINED MUTATION]
[38] = target: Ribosomal protein S6 kinase alpha-4 (Homo sapiens) (UniProt O75676)
[39] = target: Interleukin-1 receptor-associated kinase 4 (Homo sapiens) (UniProt Q9NWZ3)
Chain of Interleukin-1 receptor-associated kinase 4 (Homo sapiens) (Q9NWZ3 whole entry): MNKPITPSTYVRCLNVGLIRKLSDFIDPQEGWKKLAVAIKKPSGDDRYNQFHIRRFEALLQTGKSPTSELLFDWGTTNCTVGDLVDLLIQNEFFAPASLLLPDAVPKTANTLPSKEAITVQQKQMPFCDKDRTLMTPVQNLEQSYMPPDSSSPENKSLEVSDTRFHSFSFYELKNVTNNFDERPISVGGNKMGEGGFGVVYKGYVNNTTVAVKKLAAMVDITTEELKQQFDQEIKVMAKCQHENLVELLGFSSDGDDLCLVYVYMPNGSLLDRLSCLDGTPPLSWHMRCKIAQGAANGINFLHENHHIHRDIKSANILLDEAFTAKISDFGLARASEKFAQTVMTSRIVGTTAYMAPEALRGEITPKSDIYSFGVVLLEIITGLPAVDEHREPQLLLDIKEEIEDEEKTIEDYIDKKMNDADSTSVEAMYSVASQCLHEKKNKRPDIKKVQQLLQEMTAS

Rattus norvegicus = species: Rattus norvegicus; details: Compound concentration 10.0 uM
[40] = target: STE20/SPS1-related proline-alanine-rich protein kinase (Homo sapiens) (UniProt Q9UEW8)
[41] = target: Tyrosine-protein kinase Fyn (Homo sapiens) (UniProt P06241)
[42] = target: NT-3 growth factor receptor (Homo sapiens) (UniProt Q16288)
Chain of NT-3 growth factor receptor (Homo sapiens) (Q16288 32-839 limits assumed): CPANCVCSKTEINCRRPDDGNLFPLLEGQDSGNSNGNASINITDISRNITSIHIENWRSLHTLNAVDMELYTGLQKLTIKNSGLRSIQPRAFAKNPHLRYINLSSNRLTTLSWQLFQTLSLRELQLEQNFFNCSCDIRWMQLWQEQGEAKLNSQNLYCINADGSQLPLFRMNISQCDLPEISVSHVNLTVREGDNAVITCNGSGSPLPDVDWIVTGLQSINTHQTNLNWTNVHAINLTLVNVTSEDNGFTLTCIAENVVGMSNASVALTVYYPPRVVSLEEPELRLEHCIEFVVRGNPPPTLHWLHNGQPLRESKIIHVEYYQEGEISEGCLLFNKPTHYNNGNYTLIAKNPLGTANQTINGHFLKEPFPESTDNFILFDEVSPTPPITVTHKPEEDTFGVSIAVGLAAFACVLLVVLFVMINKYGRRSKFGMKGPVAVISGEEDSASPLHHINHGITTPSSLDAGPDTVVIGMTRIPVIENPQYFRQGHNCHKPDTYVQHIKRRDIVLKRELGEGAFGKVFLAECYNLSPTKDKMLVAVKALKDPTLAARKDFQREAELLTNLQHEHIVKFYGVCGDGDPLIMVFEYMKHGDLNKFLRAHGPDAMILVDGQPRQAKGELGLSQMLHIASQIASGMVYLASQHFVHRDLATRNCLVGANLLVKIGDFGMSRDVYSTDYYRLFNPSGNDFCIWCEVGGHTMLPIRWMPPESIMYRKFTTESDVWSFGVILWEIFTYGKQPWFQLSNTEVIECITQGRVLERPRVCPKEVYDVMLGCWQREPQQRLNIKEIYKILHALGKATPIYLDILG

[43] = target: RAC-alpha serine/threonine-protein kinase (Homo sapiens) (UniProt P31749)
[44] = target: Mitogen-activated protein kinase kinase kinase kinase 5 (Homo sapiens) (UniProt Q9Y4K4)
Chain of Mitogen-activated protein kinase kinase kinase kinase 5 (Homo sapiens) (Q9Y4K4 whole entry, looked up): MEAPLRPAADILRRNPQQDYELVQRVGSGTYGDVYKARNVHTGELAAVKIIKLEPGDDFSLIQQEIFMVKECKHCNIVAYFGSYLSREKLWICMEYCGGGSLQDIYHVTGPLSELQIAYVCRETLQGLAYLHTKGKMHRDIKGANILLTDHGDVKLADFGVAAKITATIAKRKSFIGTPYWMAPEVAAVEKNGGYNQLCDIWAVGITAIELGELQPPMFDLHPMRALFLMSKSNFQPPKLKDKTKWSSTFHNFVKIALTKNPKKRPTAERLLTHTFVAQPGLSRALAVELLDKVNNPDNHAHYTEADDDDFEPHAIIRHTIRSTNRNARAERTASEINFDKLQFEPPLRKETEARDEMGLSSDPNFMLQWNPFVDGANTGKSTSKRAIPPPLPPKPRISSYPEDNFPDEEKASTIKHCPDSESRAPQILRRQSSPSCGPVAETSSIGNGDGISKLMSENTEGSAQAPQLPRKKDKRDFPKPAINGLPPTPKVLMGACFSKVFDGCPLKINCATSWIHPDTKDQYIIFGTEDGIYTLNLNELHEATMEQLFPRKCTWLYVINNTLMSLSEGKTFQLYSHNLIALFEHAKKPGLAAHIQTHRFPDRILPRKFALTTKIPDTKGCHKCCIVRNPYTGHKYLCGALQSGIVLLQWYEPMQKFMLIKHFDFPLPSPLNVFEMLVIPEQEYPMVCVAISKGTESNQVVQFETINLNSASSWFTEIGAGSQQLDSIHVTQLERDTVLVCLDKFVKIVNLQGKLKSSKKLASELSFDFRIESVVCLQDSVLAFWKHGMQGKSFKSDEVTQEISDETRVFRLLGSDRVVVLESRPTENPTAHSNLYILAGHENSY

[45] = Compound concentration 1000.0 nM
[46] = Compound concentration 100.0 nM

Chain of Calcium/calmodulin-dependent protein kinase type II subunit gamma (Homo sapiens) (Q13555 whole entry): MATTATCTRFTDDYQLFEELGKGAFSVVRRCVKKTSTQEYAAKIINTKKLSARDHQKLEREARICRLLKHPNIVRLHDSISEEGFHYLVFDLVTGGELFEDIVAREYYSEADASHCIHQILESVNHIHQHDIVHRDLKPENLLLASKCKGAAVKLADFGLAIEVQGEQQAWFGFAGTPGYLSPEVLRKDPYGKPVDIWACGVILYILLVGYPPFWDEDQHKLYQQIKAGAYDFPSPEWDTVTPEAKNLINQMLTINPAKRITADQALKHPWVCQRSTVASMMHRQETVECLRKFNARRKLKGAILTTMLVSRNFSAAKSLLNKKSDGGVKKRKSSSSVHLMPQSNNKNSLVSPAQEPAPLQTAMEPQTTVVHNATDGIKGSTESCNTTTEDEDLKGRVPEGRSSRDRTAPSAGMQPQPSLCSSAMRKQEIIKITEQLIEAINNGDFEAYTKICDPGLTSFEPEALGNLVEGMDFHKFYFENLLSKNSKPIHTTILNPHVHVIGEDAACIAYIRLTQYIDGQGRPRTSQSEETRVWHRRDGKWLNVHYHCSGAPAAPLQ

C[C@H](NC(=O)Nc1cc2[nH]ncc2c(CO)n1)c1ccccn1 [ERKi-NC]
inactive: residual activity [1, 45] 96.4% | residual activity [2, 45] 100% | residual activity [3, 45] 97.6% | residual activity [4, 45] 100% | residual activity [5, 45] 100% | residual activity [6, 45] 100% | residual activity [7, 45] 100% | residual activity [8, 45] 60.6% | residual activity [9, 45] 100% | residual activity [11, 45] 63.8% | residual activity [12, 45] 100% | residual activity [13, 45] 100% | residual activity [14, 45] 82.3% | residual activity [15, 45] 100% | residual activity [16, 45] 95.9% | residual activity [17, 45] 100% | residual activity [18, 45] 92.7% | residual activity [19, 45] 100% | residual activity [20, 45] 100% | residual activity [21, 45] 82.6% | residual activity [22, 45] 100% | residual activity [23, 45] 100% | residual activity [24, 45] 99.8% | residual activity [25, 45] 88% | residual activity [26, 45] 100% | residual activity [27, 45] 98.9% | residual activity [28, 45] 100% | residual activity [29, 45] 91.5% | residual activity [30, 45] 51.5% | residual activity [31, 45] 100% | residual activity [32, 45] 94.3% | residual activity [33, 45] 100% | residual activity [34, 45] 90.3% | residual activity [35, 45] 100% | residual activity [36, 45] 97.4% | residual activity [37, 45] 73.5% | residual activity [38, 45] 100% | residual activity [39, 45] 100% | inhibition (Rattus norvegicus) -1.65% | residual activity [40, 45] 80.9% | residual activity [41, 45] 70.9% | residual activity [42, 45] 85.4% | residual activity [43, 45] 90% | residual activity [44, 45] 99.6%
active: residual activity [10, 45] 17.6%

C[C@@H](NC(=O)Nc1cc2[nH]ncc2c(CO)n1)c1ccccc1 [ERKi]
inactive: residual activity [1, 46] 100% | residual activity [2, 46] 91% | residual activity [3, 46] 79.8% | residual activity [4, 46] 84.6% | residual activity [5, 46] 66.7% | residual activity [6, 46] 100% | residual activity [7, 46] 100% | residual activity [8, 46] 99% | residual activity [9, 46] 59.6% | residual activity [10, 46] 89.1% | residual activity [11, 46] 94.9% | residual activity [12, 46] 97.9% | residual activity [13, 46] 100% | residual activity [14, 46] 74.7% | residual activity [15, 46] 100% | residual activity [16, 46] 100% | residual activity [17, 46] 83.3% | residual activity [18, 46] 96.4% | residual activity [19, 46] 80% | residual activity [20, 46] 85.3% | residual activity [21, 46] 90.6% | residual activity [22, 46] 99.5% | residual activity [23, 46] 100% | residual activity [24, 46] 86.7% | residual activity [25, 46] 89.3% | residual activity [26, 46] 100% | residual activity [27, 46] 68.1% | residual activity [28, 46] 86.7% | residual activity [29, 46] 77% | residual activity [30, 46] 85.9% | residual activity [31, 46] 82.9% | residual activity [32, 46] 86.3% | residual activity [33, 46] 76.3% | residual activity [34, 46] 89.9% | residual activity [35, 46] 100% | residual activity [36, 46] 80.6% | residual activity [37, 46] 100% | residual activity [38, 46] 94.5% | residual activity [39, 46] 76.1% | inhibition (Rattus norvegicus) 8.66% | residual activity [40, 46] 100% | residual activity [41, 46] 95.2% | residual activity [42, 46] 76.7% | residual activity [43, 46] 100% | residual activity [44, 46] 86.8%

From ChEMBL document CHEMBL4507286 (2021)
